In paper PMC11852716, “c-di-GMP phosphodiesterase ProE interacts with quorum sensing protein PqsE to promote pyocyanin production in Pseudomonas aeruginosa” (mSphere, 2025):

Target: T1, ProE (Pseudomonas aeruginosa, UniProt Q9HTQ9)
T1 construct: gene PA5295
Assay: surface plasmon resonance
Type: binding

T1 sequence (Q9HTQ9 entry or part of it): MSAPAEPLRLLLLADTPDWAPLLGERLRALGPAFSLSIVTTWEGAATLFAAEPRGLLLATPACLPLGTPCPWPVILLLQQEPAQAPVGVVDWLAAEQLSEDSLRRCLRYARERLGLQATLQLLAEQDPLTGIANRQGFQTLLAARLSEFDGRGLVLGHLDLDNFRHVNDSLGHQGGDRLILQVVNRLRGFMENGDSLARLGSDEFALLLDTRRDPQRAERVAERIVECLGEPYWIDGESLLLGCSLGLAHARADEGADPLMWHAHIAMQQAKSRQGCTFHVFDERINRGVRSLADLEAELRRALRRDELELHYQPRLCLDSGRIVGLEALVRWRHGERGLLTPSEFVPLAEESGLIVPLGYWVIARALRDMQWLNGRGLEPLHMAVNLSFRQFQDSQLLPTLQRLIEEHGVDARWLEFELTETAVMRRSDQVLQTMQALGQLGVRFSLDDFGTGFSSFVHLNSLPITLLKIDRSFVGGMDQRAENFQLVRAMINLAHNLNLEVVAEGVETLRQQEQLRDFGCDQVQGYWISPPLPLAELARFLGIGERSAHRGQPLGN

Q: With `Nc1nc2c(ncn2[C@@H]2O[C@@H]3CO[P@](=O)(O)O[C@H]4[C@@H](O)[C@H](n5cnc6c(=O)[nH]c(N)nc65)O[C@@H]4CO[P@](=O)(O)O[C@H]3[C@H]2O)c(=O)[nH]1` [c-di-GMP] as the compound, how does the Kd read?
A: The Kd was 2.72 µM.
